{"source": "patent US11712466B2", "about": "“Vaccine composition” (TOHOKU UNIVERSITY, priority 2017, dated 2023)", "key": {"[1]": {"tested_on": "mouse melanoma cells (B16F1)", "assay": "Subcutaneous implant model, tumor growth inhibitory effect (B16F1)", "type": "in vivo", "conditions": "immunized C57BL/6J mice, cells implanted s.c. on day 29, measured 14 days after implantation", "procedure": "(§1) After 2 weeks from the administration of each peptide vaccine and incomplete Freund's adjuvant in Example 1 (on day 29 after the initial peptide vaccine administration), mouse-derived tumor cells were implanted in an immunized mouse, whereby a subcutaneous implant model was prepared. Specifically, mouse lung cancer cells (Lewis lung cancer cells (LLC)) or mouse melanoma cells (B16F1) (all have C57BL/6J as a genetic background) cultured in a RPMI+10% FBS medium were collected by centrifugation, and a cell suspension (1.0×10^8 cells/mL) was prepared with a serum-free medium, and 0.1 mL (1.0×10^7 cells/animal) of the cell suspension was implanted in a right axillary subcutaneous region of a mouse using a 27G injection needle and a syringe, whereby a subcutaneous implant model of tumor cells was prepared."}, "[2]": {"tested_on": "recombinant human VASH2 protein", "assay": "Antibody titer in blood of immunized mice by ELISA against recombinant VASH2 protein", "type": "in vivo, mouse", "conditions": "Example 1: C57BL/6J mice, KLH-antigen complex s.c., Freund's adjuvant, serum 2 weeks after booster (total 4 weeks)", "source_text": "(§2) C57BL/6J male mice aged 8 weeks were purchased from Charles River Laboratories Japan, Inc. After the delivery, the mice were reared in an environment where the room temperature and the light and dark cycles were maintained, and were provided with feed and water ad libitum. As a candidate sequence leading to activation of helper T cells by MHC class II, two peptide sequences: MTGSAADTHR (SEQ ID NO: 4; hereinafter, a peptide composed of the amino acid sequence is referred to as “MTG peptide”) and RRRQASPPRR (SEQ ID NO: 5; hereinafter, a peptide composed of the amino acid sequence is referred to as “RRR peptide”), each of which is not common to VASH1 in the VASH2 sequence were selected (FIG. 1). With respect to these peptides, peptide vaccines using KLH as a carrier were constructed. Note that for the conjugation of each peptide with KLH, a glutaraldehyde method was used. When the amount of the peptide introduced into KLH was measured for each of the obtained peptide vaccines, the amount of MTG was 66 to 70 nmol/mg of the conjugate, and the amount of RRR was 62 to 76 nmol/mg of the conjugate. Subsequently, 5 μg of KLH (control) and 20 μg of each of the KLH-antigen complexes were prepared with physiological saline so that the total amount was 50 μL, respectively, whereby KLH-mixed solutions were obtained. To each of the KLH-mixed solutions (50 μL), an equal amount of complete Freund's adjuvant was added. The obtained mixture was subcutaneously administered to the mice, whereby initial immunization was carried out. After 2 weeks from the administration, booster immunization was carried out by subcutaneously administering a mixture of each of the KLH-mixed solutions (50 μL) and an equal amount of incomplete Freund's adjuvant to the mice. Further, after 2 weeks from the booster immunization (after a total of 4 weeks), an increase in the antibody titer in the blood of each of the immunized mice was verified by ELISA.\nThe measurement of the antibody titer by ELISA was carried out as follows. After 2 weeks from the booster immunization (after a total of 4 weeks), the blood was collected from the facial vein of each of the immunized mice, and the serum separated from the blood was subjected to ELISA. By using 50 mM carbonate buffer, peptide-conjugated BSA was prepared at 10 μg/mL, and further a recombinant VASH2 protein was prepared at 1 μg/mL, each of which was added at 50 μL/well, and the resultant was left to stand overnight at 4° C. After the solution in each well was removed, 5% skim milk was added at 150 μL/well. After the resultant was left to stand at room temperature for 2 hours, the solution was removed, and subsequently, a serum sample diluted by 20 to 62500 times with 5% skim milk was added at 50 μL/well, and the resultant was left to stand overnight at 4° C. Subsequently, washing was carried out with PBS (200 μL/well×6 times), and thereafter, a secondary antibody (HRP-conjugated anti-Mouse IgG) diluted by 1000 times with 5% skim milk was added at 50 μL/well. After the resultant was left to stand at room temperature for 3 hours, washing was carried out with PBS (200 μL/well×3 times). Thereafter, tetramethylbenzidine (TMB) was added at 50 μL/well, and the resultant was left to stand at room temperature under light shielding. After 30 minutes, the reaction was stopped by adding 0.5 N H2SO4 at 50 μL/well, and an absorbance (450 nm) was measured using a microplate reader."}, "[3]": {"tested_on": "antigen peptide (peptide-conjugated BSA)", "assay": "Antibody titer in blood of immunized mice by ELISA against antigen peptide", "type": "in vivo, mouse", "conditions": "Example 1: C57BL/6J mice, KLH-antigen complex s.c., Freund's adjuvant, serum 2 weeks after booster (total 4 weeks)", "source_text": "as §2\nThe measurement of the antibody titer by ELISA was carried out as follows. After 2 weeks from the booster immunization (after a total of 4 weeks), the blood was collected from the facial vein of each of the immunized mice, and the serum separated from the blood was subjected to ELISA. By using 50 mM carbonate buffer, peptide-conjugated BSA was prepared at 10 μg/mL, and further a recombinant VASH2 protein was prepared at 1 μg/mL, each of which was added at 50 μL/well, and the resultant was left to stand overnight at 4° C. After the solution in each well was removed, 5% skim milk was added at 150 μL/well. […] After 30 minutes, the reaction was stopped by adding 0.5 N H2SO4 at 50 μL/well, and an absorbance (450 nm) was measured using a microplate reader."}, "[4]": {"tested_on": "Lewis lung cancer cells (LLC)", "assay": "Subcutaneous implant model, tumor growth inhibitory effect (LLC)", "type": "in vivo, mouse", "conditions": "immunized C57BL/6J mice, cells implanted s.c. on day 29, measured 14 days after implantation", "procedure": "as §1"}}, "note": "Ends that are not written are not given here.", "data": [{"substance": "RRR peptide vaccine: RRR peptide RRRQASPPRR (SEQ ID NO: 5) conjugated with KLH as carrier by a glutaraldehyde method (also: conjugated with KLH by glutaraldehyde)", "values": [{"measurement": "tumor size (tumorigenesis), B16F1 melanoma cells", "setting": "[1]", "result": "could not inhibit tumorigenesis"}, {"measurement": "antibody titer against the recombinant human VASH2 protein", "setting": "[2]", "result": "a significant increase in the antibody titer was not confirmed"}, {"measurement": "antibody titer against the antigen peptide", "setting": "[3]", "result": "significant concentration-dependent increase"}, {"measurement": "tumor size (tumorigenesis), Lewis lung cancer cells", "setting": "[4]", "result": "could not inhibit tumorigenesis"}]}]}
